Experimental data reported in patent publication EP2966448B1, “METHOD FOR THE PREDICTION OR PROGNOSIS OF THE RESPONSE OF A HUMAN SUBJECT SUFFERING FROM CANCER TO TREATMENT WITH AN ANTAGONIST OF THE NK1 RECEPTOR” (priority 2013, dated 2014).
Like-named read-outs stand apart in the source and are kept apart here.

Tests used:
Non Hodgkin Lymphoma T = assay: Inhibition of primary tumor cell cultures (48 hours) vs NK1 receptor immunostaining (Example 1); assay type: cell-based; details: Homo sapiens, 1 micromolar, read-out: Percentage of inhibition of cell cultures
Protocol: (§1) Cell cultures. To obtain tumor cells from human primary tumors we used the method described in De Bari et al. (De Bari et al. 2001). Briefly, small pieces of the tumors were digested into a hyaluronidase solution (Sigma-Aldrich, USA) at a concentration of 1 mg/ml during 15 minutes at 37°C, and then they were treated with 6 mg/ml of collagenase type IV (Invitrogen) during 2 hours at 37°C. Consecutively, cells were washed, and resuspended in the DMEM culture medium with high concentration of glucose (Dulbecco's Modified Eagle's Medium, Invitrogen) supplemented with 1% of antibiotics-antimycotics (Invitrogen) and with 1% of sodium pyruvate (Invitrogen), and the cells were seeded in culture slides at a concentration of 10.000 cells per square centimeter. When cells reached confluence, the adherent cells were separated using sterile trypsin at 0,5% (Invitrogen) and they were used among passages 3 and 9. For the assays shown next, tumor cells were seeded on slides at a concentration of 25.000 cells per well. A total of 6 wells containing the tumor cells were used as survival control. […] All the cultures were kept during 48 hours and later on recollected for their analysis.
(§2) Immunohistochemistry techniques. The presence of NK1 receptors was also analyzed using immunohistochemistry techniques. Briefly, a sample of each of the cultures of the cell lines used in the present invention, was centrifuged (5 minutes at 1.500 rpm) and the pellet obtained was dehydrated using increasing concentrations of ethanol and, finally, xylol. Then, said dehydrated samples were embedded in paraffin, creating a block of cells. Such paraffin blocks were cut with a microtome at 5 microns thickness, and were placed on microscope slides adequate to perform immunohistochemistry techniques. Consecutively, they were de-paraffinized by immersing them in xylol, to be finally hydrated using a solution containing decreasing concentrations of ethanol, and finally submerged them into water. […] After this, the samples were left to cool down at room temperature for 10 minutes. The endogenous peroxidase activity was blocked with 3% peroxide of hydrogen for 30 minutes at room temperature. After washing the samples with 0.05 M of Tris buffer, they were incubated with 10% non-immune pork serum at for 30 minutes at room temperature. To analyze the expression of NK1 receptors, the cellular samples were incubated in the presence of anti-NK1 antibodies (S8305, Sigma-Aldrich) diluted 1:1000, overnight at 4°C. Afterwards, the samples were washed in Tris buffer 0.05 M at room temperature. The next step was the addition of Envision System-HRP (Dako) reagents for 30 minutes at room temperature. Then, the samples were washed again in Tris buffer 0.05 M and the immunoreactivity was visualized through light microscopy with a chromogenic solution containing 3,3'-Diaminobenzidine (DAB+; Dako, USA). To differentiate the cell nuclei, they were slightly stained with hematoxylin. As negative control, it was used samples not incubated with the primary antibody anti-NK1, which was replaced by non-immune serum. All the samples were evaluated.
(§3) To value the immunostaining in each of the cases six cuts were performed to be analyzed by the immunohistochemistry technique. In each of the six cuts, it was counted cells in 20 fields (magnification 400x) using an Olympus microscope (model CX31). In each field it was counted the total number of cells and the number of cells presenting immunostaining, calculating afterwards the percentage of cells which presented immunostaining.

[1] = tested on: Breast carcinoma (ductal adenocarcinoma); assay: Inhibition of primary tumor cell cultures vs Kras mutation (Example 2); assay type: cell-based, human; details: Breast carcinoma (ductal adenocarcinoma), 100 micromolar
Protocol: (§4) Cell cultures. […] Briefly, small pieces of the tumors were digested into a hyaluronidase solution (Sigma-Aldrich, USA) at a concentration of 1 mg/ml during 15 minutes at 37°C, and then they were treated with 6 mg/ml of collagenase type IV (Invitrogen) during 2 hours at 37°C. Consecutively, cells were washed, and resuspended in the DMEM culture medium with high concentration of glucose (Dulbecco's Modified Eagle's Medium, Invitrogen) supplemented with 1% of antibiotics-antimycotics (Invitrogen) and with 1% of sodium pyruvate (Invitrogen), and the cells were seeded in culture slides at a concentration of 10.000 cells per square centimeter. When cells reached confluence, the adherent cells were separated using sterile trypsin at 0,5% (Invitrogen) and they were used among passages 3 and 9. For the assays shown next, tumor cells were seeded on slides at a concentration of 25.000 cells per well. A total of 6 wells containing the tumor cells were used as survival control. […] All the cultures were kept during 48 hours and later on recollected for their analysis.
(§5) In each case the presence or not of mutations in K-ras gene was determined.
(§6) To determine the existence of mutations in the K-ras gene DNA from cancer tumor cells was extracted from samples obtained from the different cancer tumor cells, using DNA extraction kits from Takara (Madison, WI, US) or Ambion (Huntingdon, Cambridgeshire, United Kingdom), following the manufacturer's instructions, and as it has been previously published (Di Fiore F, et al. 2007). Consecutively it was analyzed by sequencing the exon 2 of the KRAS gene, , by means of PCR amplification from previously extracted cancer tumor DNA, using the following sense primer (SEQ ID NO. 15): 5'-[sequence]-3' and anti-sense primer (SEQ ID NO. 16): 5'-[sequence]-3'. After the purification using the Qiagen extraction kit, the PCR products were sequenced using the Big Dye Terminator Kit V3.1 (Applied Biosystems, Foster City, CA, U.S.) and an ABI Prism 377 or 3100 DNA sequencer (Applied Biosystems). The presence of a heterozygous mutation in the KRAS gene in cancer tumor cells of the cultures was defined as the appearance of a mutant peak of a height of at least a third of the wild type. All the sequence analysis were executed at least twice in two independent PCR.
(§7) The antibody against NK1 receptor (Table 16) was used at 1/50 concentration. The percentages of inhibition are expressed in percentage of variation in relation to control ± standard deviation.

[2] = tested on: Lung carcinoma (non small cell type); assay: Inhibition of primary tumor cell cultures (48 hours) vs NK1 receptor immunostaining (Example 1); assay type: cell-based; details: Homo sapiens, 1 micromolar, read-out: Percentage of inhibition of cell cultures
Protocol: as §1, §2, §3

[3] = tested on: Undifferentiated Pleomorphic Sarcoma (malignant fibrous histiocytoma grade 3); assay: Inhibition of primary tumor cell cultures vs Kras mutation (Example 2); assay type: cell-based, human; details: Undifferentiated Pleomorphic Sarcoma (malignant fibrous histiocytoma grade 3), 100 micromolar
Protocol: as §1, §5, §6
(§8) The percentages of inhibition are expressed in percentage of variation in relation to control ± standard deviation.

Pancreatic carcinoma = assay: Inhibition of primary tumor cell cultures (48 hours) vs NK1 receptor immunostaining (Example 1); assay type: cell-based; details: Homo sapiens, 1 micromolar, read-out: Percentage of inhibition of cell cultures
Protocol: as §1, §2, §3

[4] = tested on: Malignant Fibrous Histiocytoma; assay: as above; assay type: cell-based; details: Homo sapiens, 1 micromolar, read-out: Percentage of inhibition of cell cultures
Protocol: as §1, §2, §3

Prostate carcinoma = assay: cells; details: Homo sapiens, 1 micromolar
Protocol: as §1, §2, §3

Non Hodgkin Lymphoma B = assay: Inhibition of primary tumor cell cultures (48 hours) vs NK1 receptor immunostaining (Example 1); assay type: cell-based; details: Homo sapiens, 1 micromolar, read-out: Percentage of inhibition of cell cultures
Protocol: as §1, §2, §3

Endometrium carcinoma = assay: Inhibition of primary tumor cell cultures vs Kras mutation (Example 2); assay type: cell-based, human; details: Endometrium carcinoma, 100 micromolar
Protocol: as §4, §5, §6, §7

Leukemia B = assay: Inhibition of primary tumor cell cultures (48 hours) vs NK1 receptor immunostaining (Example 1); assay type: cell-based; details: Homo sapiens, 1 micromolar, read-out: Percentage of inhibition of cell cultures
Protocol: as §1, §2, §3

[5] = tested on: Non Hodgkin Lymphoma T (diffuse T cell lymphoma); assay: Inhibition of primary tumor cell cultures vs Kras mutation (Example 2); assay type: cell-based, human; details: Non Hodgkin Lymphoma T (diffuse T cell lymphoma), 100 micromolar
Protocol: as §1, §5, §6, §8

[6] = tested on: human primary tumor cells; assay: Inhibition of primary tumor cell cultures vs amplification of the gene encoding the NK1 receptor (Example 6; tumor type per table line); assay type: cell-based; details: 100 micromolar
Protocol: as §4
The presence or absence of the amplification of the gene encoding for the NK1 receptor was determined, and then the cells were cultured in the presence of several antagonists of the NK1 receptor.
For each case, the presence or absence of amplification of the gene encoding for the NK1 receptor was determined.
In order to determine the presence of the amplification (increase in the number of copies) of the gene encoding the NK1 receptor (TAC1R), it was used the comparative genomic hybridization technique (CGH Array). Firstly genomic DNA was extracted from each case. Later, it was performed the marking and hybridization of the DNA of each sample together with DNA of a commercial reference without genomic alterations (from masculine or feminine sex, depending on the gender of the patient from whom the samples were obtained). The Array is Sureprint G3 Human CGH Microarray from the company Agilent was used, with an average separation between probes of 5.3Kb and 4.6Kb for the genes RefSeq. The reading of the microarray was done with the DNA Microarray Scanner G2565CA from Agilent, at a resolution of 3 µm. The analysis of the results was performed with the software Cytogenomics v 2.0.6.0 from Agilent with ADM-2: 6.0; Centralization: ON (Threshold: 6.0, Bin size: 10); Fuzzy zero: ON; Aberration filters: ON (minProbes=5 and minAvgAbsLopRatio= 0,5); Feature Level Filters : ON. The genomic coordinates are coincident with the NCBI36genome (hg18). Cases were distributed in two groups: Group I for those cases without the amplification of the gene encoding the NK1 receptor (locus 2p13.1-p12), and Group II for those cases with amplification of the gene encoding the NK1receptor (locus 2p13.1-p12).
The antibody against NK1 receptor (Table 36) was used at 1/50 concentration. The percentages of inhibition are expressed in percentages of variation in relation to control ± standard deviation.

[7] = NK1 receptor immunostaining Group 1 (less than 20% of the cells)
[8] = NK1 receptor immunostaining Group 2 (20-80% of the cells)
[9] = NK1 receptor immunostaining Group 3 (more than 80% of the cells)
[10] = NK1 receptor immunostaining Intensity grade 1
[11] = NK1 receptor immunostaining Intensity grade 2
[12] = NK1 receptor immunostaining Intensity grade 3
[13] = Cases with Kras non-mutated (wild type)

## Cc1cc(F)ccc1[C@H]1CNCCN1C(=O)N(C)[C@H](C)c1cc(C(F)(F)F)cc(C(F)(F)F)c1 [Vestipitant]
Non Hodgkin Lymphoma T; [7]
  inhibition at 1 µM: 13 ± 4%
Non Hodgkin Lymphoma T; [8]
  inhibition at 1 µM: 46 ± 4%
Non Hodgkin Lymphoma T; [9]
  inhibition at 1 µM: 93 ± 6%
Non Hodgkin Lymphoma T; [10]
  inhibition at 1 µM: 17 ± 2%
Non Hodgkin Lymphoma T; [11]
  inhibition at 1 µM: 48 ± 4%
Non Hodgkin Lymphoma T; [12]
  inhibition at 1 µM: 93 ± 5%
[1]; Cases with Kras mutated
  Percentage of inhibition of cell cultures: 26±4 percentage
[1]; [13]
  Percentage of inhibition of cell cultures: 97±5 percentage
[2]; [7]
  inhibition at 1 µM: 15 ± 2%
[2]; [8]
  inhibition at 1 µM: 45 ± 2%
[2]; [9]
  inhibition at 1 µM: 93 ± 4%
[2]; [10]
  inhibition at 1 µM: 17 ± 2%
[2]; [11]
  inhibition at 1 µM: 49 ± 5%
[2]; [12]
  inhibition at 1 µM: 93 ± 5%
[3]; Cases with Kras mutated
  Percentage of inhibition of cell cultures: 26±4 percentage
[3]; [13]
  Percentage of inhibition of cell cultures: 95±6 percentage
Pancreatic carcinoma; [7]
  inhibition at 1 µM: 11 ± 3%
Pancreatic carcinoma; [8]
  inhibition at 1 µM: 45 ± 2%
Pancreatic carcinoma; [9]
  inhibition at 1 µM: 91 ± 3%
Pancreatic carcinoma; [10]
  inhibition at 1 µM: 21 ± 4%
Pancreatic carcinoma; [11]
  inhibition at 1 µM: 47 ± 5%
Pancreatic carcinoma; [12]
  inhibition at 1 µM: 91 ± 5%
[4]; [7]
  inhibition at 1 µM: 15 ± 4%
[4]; [8]
  inhibition at 1 µM: 46 ± 4%
[4]; [9]
  inhibition at 1 µM: 91 ± 5%
[4]; [10]
  inhibition at 1 µM: 17 ± 3%
[4]; [11]
  inhibition at 1 µM: 48 ± 4%
[4]; [12]
  inhibition at 1 µM: 91 ± 5%
Prostate carcinoma; read-out: Percentage of inhibition of cell cultures, NK1 receptor immunostaining Group 1 (less than 20% of the cells)
  inhibition at 1 µM: 17 ± 4%
Prostate carcinoma; read-out: Percentage of inhibition of cell cultures, NK1 receptor immunostaining Group 2 (20-80% of the cells)
  inhibition at 1 µM: 46 ± 3%
Prostate carcinoma; read-out: Percentage of inhibition of cell cultures, NK1 receptor immunostaining Group 3 (more than 80% of the cells)
  inhibition at 1 µM: 92 ± 5%
Prostate carcinoma; read-out: Percentage of inhibition of cell cultures, NK1 receptor immunostaining Intensity grade 1
  inhibition at 1 µM: 18 ± 4%
Prostate carcinoma; read-out: Percentage of inhibition of cell cultures, NK1 receptor immunostaining Intensity grade 2
  inhibition at 1 µM: 47 ± 4%
Prostate carcinoma; read-out: Percentage of inhibition of cell cultures, NK1 receptor immunostaining Intensity grade 3
  inhibition at 1 µM: 92 ± 4%
Non Hodgkin Lymphoma B; [7]
  inhibition at 1 µM: 14 ± 3%
Non Hodgkin Lymphoma B; [8]
  inhibition at 1 µM: 45 ± 5%
Non Hodgkin Lymphoma B; [9]
  inhibition at 1 µM: 93 ± 5%
Non Hodgkin Lymphoma B; [10]
  inhibition at 1 µM: 16 ± 4%
Non Hodgkin Lymphoma B; [11]
  inhibition at 1 µM: 47 ± 5%
Non Hodgkin Lymphoma B; [12]
  inhibition at 1 µM: 93 ± 4%
Endometrium carcinoma; Cases with Kras mutated
  Percentage of inhibition of cell cultures: 24±6 percentage
Endometrium carcinoma; [13]
  Percentage of inhibition of cell cultures: 95±4 percentage
Leukemia B; [7]
  inhibition at 1 µM: 16 ± 5%
Leukemia B; [8]
  inhibition at 1 µM: 47 ± 5%
Leukemia B; [9]
  inhibition at 1 µM: 92 ± 5%
Leukemia B; [10]
  inhibition at 1 µM: 17 ± 2%
Leukemia B; [11]
  inhibition at 1 µM: 47 ± 3%
Leukemia B; [12]
  inhibition at 1 µM: 92 ± 4%
[5]; Cases with Kras mutated
  Percentage of inhibition of cell cultures: 25±5 percentage
[5]; [13]
  Percentage of inhibition of cell cultures: 96±5 percentage
[6]; Breast carcinoma (ductal adenocarcinoma), Cases with amplification of the gene that encodes for the NK1 receptor
  Percentage of inhibition of cell cultures: 94±6 percentage
[6]; Breast carcinoma (ductal adenocarcinoma), Cases without amplification of the gene that encodes for the NK1 receptor
  Percentage of inhibition of cell cultures: 24±3 percentage
[6]; Burkitt Lymphoma, Cases with amplification of the gene that encodes for the NK1 receptor
  Percentage of inhibition of cell cultures: 97±5 percentage
[6]; Burkitt Lymphoma, Cases without amplification of the gene that encodes for the NK1 receptor
  Percentage of inhibition of cell cultures: 23±5 percentage
[6]; Carcinoma of the uterine cervix (Squamous cell carcinoma), Cases with amplification of the gene that encodes for the NK1 receptor
  Percentage of inhibition of cell cultures: 94±6 percentage
[6]; Carcinoma of the uterine cervix (Squamous cell carcinoma), Cases without amplification of the gene that encodes for the NK1 receptor
  Percentage of inhibition of cell cultures: 26±6 percentage
[6]; Colon carcinoma (Adenocarcinoma), Cases with amplification of the gene that encodes for the NK1 receptor
  Percentage of inhibition of cell cultures: 93±3 percentage
[6]; Colon carcinoma (Adenocarcinoma), Cases without amplification of the gene that encodes for the NK1 receptor
  Percentage of inhibition of cell cultures: 24±4 percentage
[6]; Endometrium carcinoma, Cases with amplification of the gene that encodes for the NK1 receptor
  Percentage of inhibition of cell cultures: 95±5 percentage
[6]; Endometrium carcinoma, Cases without amplification of the gene that encodes for the NK1 receptor
  Percentage of inhibition of cell cultures: 23±5 percentage
[6]; Gastric carcinoma (Adenocarcinoma), Cases with amplification of the gene that encodes for the NK1 receptor
  Percentage of inhibition of cell cultures: 94±4 percentage
[6]; Gastric carcinoma (Adenocarcinoma), Cases without amplification of the gene that encodes for the NK1 receptor
  Percentage of inhibition of cell cultures: 25±5 percentage
[6]; Glioma (astrocytoma), Cases with amplification of the gene that encodes for the NK1 receptor
  Percentage of inhibition of cell cultures: 94±7 percentage
[6]; Glioma (astrocytoma), Cases without amplification of the gene that encodes for the NK1 receptor
  Percentage of inhibition of cell cultures: 26±5 percentage
[6]; Lung carcinoma (non small cell lung carcinoma), Cases with amplification of the gene that encodes for the NK1 receptor
  Percentage of inhibition of cell cultures: 93±5 percentage
[6]; Lung carcinoma (non small cell lung carcinoma), Cases without amplification of the gene that encodes for the NK1 receptor
  Percentage of inhibition of cell cultures: 24±4 percentage
[6]; Lung carcinoma (small cell lung carcinoma), Cases with amplification of the gene that encodes for the NK1 receptor
  Percentage of inhibition of cell cultures: 94±4 percentage
[6]; Lung carcinoma (small cell lung carcinoma), Cases without amplification of the gene that encodes for the NK1 receptor
  Percentage of inhibition of cell cultures: 25±3 percentage
[6]; Melanoma (Nodular Melanoma), Cases with amplification of the gene that encodes for the NK1 receptor
  Percentage of inhibition of cell cultures: 96±5 percentage
[6]; Melanoma (Nodular Melanoma), Cases without amplification of the gene that encodes for the NK1 receptor
  Percentage of inhibition of cell cultures: 24±6 percentage
[6]; Non Hodgkin Lymphoma B (diffuse B cell lymphoma), Cases with amplification of the gene that encodes for the NK1 receptor
  Percentage of inhibition of cell cultures: 94±6 percentage
[6]; Non Hodgkin Lymphoma B (diffuse B cell lymphoma), Cases without amplification of the gene that encodes for the NK1 receptor
  Percentage of inhibition of cell cultures: 27±5 percentage
[6]; Non Hodgkin Lymphoma T (diffuse T cell lymphoma), Cases with amplification of the gene that encodes for the NK1 receptor
  Percentage of inhibition of cell cultures: 95±4 percentage
[6]; Non Hodgkin Lymphoma T (diffuse T cell lymphoma), Cases without amplification of the gene that encodes for the NK1 receptor
  Percentage of inhibition of cell cultures: 29±3 percentage
[6]; Ovarian carcinoma(Adenocarcinoma), Cases with amplification of the gene that encodes for the NK1 receptor
  Percentage of inhibition of cell cultures: 96±5 percentage
[6]; Ovarian carcinoma(Adenocarcinoma), Cases without amplification of the gene that encodes for the NK1 receptor
  Percentage of inhibition of cell cultures: 25±4 percentage
[6]; Pancreatic carcinoma (Adenocarcinoma), Cases with amplification of the gene that encodes for the NK1 receptor
  Percentage of inhibition of cell cultures: 93±4 percentage
[6]; Pancreatic carcinoma (Adenocarcinoma), Cases without amplification of the gene that encodes for the NK1 receptor
  Percentage of inhibition of cell cultures: 25±3 percentage
[6]; Prostate carcinoma, Cases with amplification of the gene that encodes for the NK1 receptor
  Percentage of inhibition of cell cultures: 96±6 percentage
